Measurements reported in patent US4122184A, “Benzimidazole insecticides” (priority 1977, dated 1978).

What was measured:
[1] = tested on: Bean Leaf Beetle; experiment: Field trial, contact poison test; type: in vivo
From the text: (§1) Infested plants are placed in 6 oz. prescription bottles filled with water to keep them from wilting. Cellucotton is wrapped around the plant stem and squeezed into the bottle neck to prevent the insects from drowning.
(§2) A DeVilbiss Special Atomizer (5004) is used at 10 psi to spray the test plant with different concentrations of compounds. The atomizer is held at arm's length to prevent blowing the insects off the host plant. After treating, the bottles are placed on a table covered with brown wrapping paper to catch the dead insects as they drop from the plant. The plants are spaced so the leaves or plants are not touching one another.
(§3) The results are read at 24, 48, and 72 hours when applicable. The rating scale is 0 to 9 where 0 = 0-10 percent and 9 = 91-100 percent mortality.
(§4) Using the above methods, field trials were carried out against species of 5 orders of insects. The results, which are summarized in the following tables, give the average mortality for the particular insect with a given benzimidazole for each concentration employed. […] These tables contain all results obtained during the summer trials.

[2] = tested on: Red-Legged Grasshopper Adults; experiment: Field trial, contact poison test; type: in vivo
From the text: as §1, §2, §3, §4

[3] = tested on: Potato Flea Beetle Adults; experiment: Field trial, contact poison test; type: in vivo
From the text: as §1, §2, §3, §4

[4] = tested on: Striped Cucumber Beetle Adults; experiment: Field trial, stomach poison test; type: in vivo; parameters: key: mortality rating on a 0 to 9 scale
Method: (§5) Leaves from the infested plant are treated with different concentrations of the test compounds, either by spraying with a DeVilbiss Special Atomizer (5004) at 10 psi or by dipping the leaves in solutions containing the compound. The leaves are then allowed to air dry.
(§6) After the leaves have dryed, they are placed in plastic petri dishes (100 × 25 mm), then the insects are counted out into each dish, five or ten insects per dish depending on the number of insects available. There are one or two replicates and usually two or three rates with each compound. Mortality results are taken at 24, 48 and 72 hours. The rating scale is 0 to 9.
as §4

[5] = tested on: Boll Weevil; experiment: Field trial (first summer), topical; type: in vivo, Anthonomus grandis; settings: .15625 μg/μl
Method: (§7) In a variation of the above test, 1 microliter of a test solution containing a predetermined number of micrograms of benzimidazole was applied directly to larvae or adult insects.
(§8) During the previous summer similar field trials were conducted employing the same tests as heretofore but with some additional species of insects not included in the later tests. The results listed below are for tests in which an insect mortality was established by a given application route and at a given concentration in a particular test. The same 0 - 9 scoring system is used as is the designation of compounds by alphabetical symbols.

[6] = tested on: Confused Flour Beetle; experiment: Field trial (first summer), topical; type: in vivo; settings: .078125 μg/μl
Method: as §7, §8

[7] = tested on: Picnic Beetle; experiment: Field trial (first summer), topical; type: in vivo; settings: .078125 μg/μl
Method: as §7, §8

[8] = tested on: Yellow Mealworm Larvae; experiment: Field trial, topical application; type: in vivo; parameters: key: 0 = 0-10% mortality, 9 = 91-100% mortality (0-9 scale)
Method: as §3, §7, §4

[9] = tested on: Bean Leaf Beetle; experiment: Field trial, stomach poison test; type: in vivo
Method: as §5, §6, §4

[10] = tested on: Red-Legged Grasshopper Adults; experiment: Field trial, stomach poison test; type: in vivo
Method: as §5, §6, §4

[11] = tested on: Potato Flea Beetle Adults; experiment: Field trial, stomach poison test; type: in vivo
Method: as §5, §6, §4

[12] = tested on: Squash Bug Adults; experiment: Field trial, contact poison test; type: in vivo; parameters: key: 0-9 rating: 0 = 0-10% mortality, 9 = 91-100% mortality
From the text: as §1, §2, §3, §4

[13] = tested on: Southern Corn Rootworm Adults; experiment: Field trial, contact poison test; type: in vivo
From the text: as §1, §2, §3, §4

[14] = tested on: Tarnished Plant Bug Adults; experiment: Field trial, stomach poison test; type: in vivo; parameters: key: mortality rating on a 0 to 9 scale
Method: as §5, §6, §4

[15] = tested on: Unidentified Green Leafhopper; experiment: Field trial, stomach poison test; type: in vivo; parameters: key: mortality rating on a 0 to 9 scale
Method: as §5, §6, §4

[16] = tested on: Southern Corn Rootworm Adults; experiment: Field trial, stomach poison test; type: in vivo; parameters: key: mortality rating on a 0 to 9 scale
Method: as §5, §6, §4

[17] = tested on: Citrus Rust Mite (CRM); experiment: Miticide test, acute mortality, foliar spray; type: in vivo; settings: after 72 hours
Method: Citrus cuttings were obtained and prepared for testing within 24 hours prior to inoculation with citrus rust mites. To prepare the cuttings, terminals of branches 12 to 14 inches in length were cut from temple orange trees, immediately placed in tap water and taken into the laboratory. Uniform hardwood cuttings, 3 to 4 inches in length, were cut from the branches, all but one hardened leaf was removed from the cuttings, and the remaining leaf was wiped clean with a cotton pad soaked in 10% ethanol solution. Each cutting was immediately placed in tap water in a test tube with the closed leaf extending out of the test tube. Then, a ring of melted lanolin was applied around the petiole to prevent migration of mites from the leaf. One cutting was used for each replicate.
When the leaves were dry immediately after cleaning, citrus rust mites were transferred to the test leaves by cutting a heavily infested colony leaf (from a source colony maintained on citrus seedlings) into 20 to 22 sections (approximately 0.25 by 0.5 inches in size) and using forceps to place 1 section on each leaf cutting. As the section became desiccated the mites moved to the whole leaf and in 20 hours the sections were removed from the leaves for treatment application.
Treatments were applied within 24 hours after inoculation by removing the cuttings from the test tube and submerging the leaves in the treatment solution for 5 seconds by hand and immediately returning the cutting to the test tube. […]
(§9) The treated cuttings were stored in the greenhouse for 24 hours before evaluation under a binocular disecting microscope in the laboratory. In evaluating the results of the miticide test, each treated cutting was removed from the test tube, observed for live and dead mites at 14 × magnification, and returned immediately to the test tube. A scale of 0-9 was used as before.

[18] = tested on: Two-Spotted Spider Mite (2-SSM); experiment: Miticide test, acute mortality, foliar spray; type: in vivo, Tetranychus urticae
Method: Each 5 mg. sample of technical compound preweighed at Greenfield was dissolved in 2.5 ml. of acetone and diluted with 247.5 ml. of water containing a combination of […]
as §9
The test employing two-spotted spider mites was conducted in similar fashion except that the mites were maintained on squash seedlings or squash cuttings.

[19] = tested on: Aphids - Sour Gum; experiment: Field trial, stomach poison test; type: in vivo
Method: as §5, §6, §4

[20] = tested on: Aphids - Tulip Tree; experiment: Field trial, stomach poison test; type: in vivo
Method: as §5, §6, §4

[21] = tested on: Aphids - Apple; experiment: Field trial, stomach poison test; type: in vivo
Method: as §5, §6, §4

[22] = tested on: Meadow Spittlebug; experiment: Field trial, stomach poison test; type: in vivo
Method: as §5, §6, §4

O=[N+]([O-])c1cc(C(F)(F)F)cc2nc(C(F)F)[nH]c12 [Q, 2-difluoromethyl-4-nitro-6-trifluoromethylbenzimidazole]
average mortality rating ([1]; 25 ppm): 0 (0-10 percent)
average mortality rating ([1]; 50 ppm): 0 (0-10 percent)
average mortality rating ([1]; 100 ppm): 0 (0-10 percent)
average mortality rating ([2]; 10 ppm): 0 (0-10 percent)
average mortality rating ([2]; 25 ppm): 4
average mortality rating ([2]; 50 ppm): 5
average mortality rating ([3]; 10 ppm): 3
average mortality rating ([3]; 25 ppm): 6
average mortality rating ([3]; 50 ppm): 8
average mortality rating ([4]; 10 ppm): 2
average mortality rating ([4]; 25 ppm): 3
average mortality rating ([4]; 50 ppm): 2
average mortality rating ([4]; 100 ppm): 2
insect mortality rating [5]: 5
insect mortality rating [6]: 7
insect mortality rating [7]: 9 (91-100 percent mortality)
average mortality rating ([8]; 0.03 μg/μl): 1
average mortality rating ([8]; 0.07 μg/μl): 4
average mortality rating ([8]; 0.15 μg/μl): 7
average mortality rating ([9]; 10 ppm): 0 (0-10 percent)
average mortality rating ([9]; 25 ppm): 0 (0-10 percent)
average mortality rating ([9]; 50 ppm): 0 (0-10 percent)
average mortality rating ([10]; 10 ppm): 1
average mortality rating ([10]; 25 ppm): 1
average mortality rating ([10]; 50 ppm): 5
average mortality rating ([11]; 5 ppm): 0 (0-10 percent)
average mortality rating ([11]; 10 ppm): 1
average mortality rating ([11]; 25 ppm): 1
average mortality rating ([11]; 50 ppm): 5

CCOC(=O)n1c(C(F)(F)F)nc2c([N+](=O)[O-])cc(C(F)(F)F)cc21 [U, ethyl 4-nitro-2,6-bis(trifluoromethyl)benzimidazolecarboxylate]
average mortality rating ([12]; 125 ppm): 5
average mortality rating ([12]; 250 ppm): 5
average mortality rating ([12]; 500 ppm): 7
average mortality rating ([12]; 750 ppm): 7
average mortality rating ([2]; 25 ppm): 9 (91-100 percent mortality)
average mortality rating ([2]; 50 ppm): 9 (91-100 percent mortality)
average mortality rating ([13]; 25 ppm): 4
average mortality rating ([13]; 50 ppm): 9 (91-100 percent mortality)
average mortality rating ([13]; 100 ppm): 9 (91-100 percent mortality)
average mortality rating ([14]; 10 ppm): 0 (0-10 percent)
average mortality rating ([14]; 25 ppm): 1
average mortality rating ([14]; 50 ppm): 6
average mortality rating ([15]; 10 ppm): 3
average mortality rating ([15]; 25 ppm): 7
average mortality rating ([15]; 50 ppm): 9 (91-100 percent mortality)
average mortality rating ([4]; 10 ppm): 2
average mortality rating ([4]; 25 ppm): 1
average mortality rating ([4]; 50 ppm): 4
average mortality rating ([4]; 100 ppm): 9 (91-100 percent mortality)
average mortality rating ([16]; 25 ppm): 5
average mortality rating ([16]; 50 ppm): 3
average mortality rating ([16]; 100 ppm): 3
acute mortality rating ([17]; 6.25 ppm): 1
acute mortality rating ([17]; 12.5 ppm): 1
acute mortality rating ([17]; 25 ppm): 9 (91-100 percent mortality)
acute mortality rating ([17]; 50 ppm): 9 (91-100 percent mortality)
acute mortality rating ([17]; 100 ppm): 8
acute mortality rating ([18]; 6.25 ppm): 1
acute mortality rating ([18]; 12.5 ppm): 3
acute mortality rating ([18]; 25 ppm): 8
acute mortality rating ([18]; 50 ppm): 8
acute mortality rating ([18]; 100 ppm): 9 (91-100 percent mortality)
average mortality rating ([8]; 0.03 μg/μl): 4
average mortality rating ([8]; 0.07 μg/μl): 4
average mortality rating ([8]; 0.15 μg/μl): 6
average mortality rating ([19]; 25 ppm): 9 (91-100 percent mortality)
average mortality rating ([19]; 50 ppm): 7
average mortality rating ([19]; 100 ppm): 9 (91-100 percent mortality)
average mortality rating ([20]; 25 ppm): 6
average mortality rating ([20]; 50 ppm): 8
average mortality rating ([20]; 100 ppm): 9 (91-100 percent mortality)
average mortality rating ([21]; 25 ppm): 2
average mortality rating ([21]; 50 ppm): 4
average mortality rating ([21]; 100 ppm): 6
average mortality rating ([22]; 10 ppm): 5
average mortality rating ([22]; 25 ppm): 5
average mortality rating ([22]; 50 ppm): 3
average mortality rating ([22]; 100 ppm): 0 (0-10 percent)
